Measurements: patent publication US9872494B2, “Active ingredient combinations comprising pyridylethylbenzamides and other active ingredients” (priority 2010, dated 2018)

Columns and labels:
Type in all cases: in vivo
[1] = tested on: green peach aphid (Myzus persicae); assay: Myzus test (spray treatment), Chinese cabbage leaf disks; conditions: for Mortality in % after 1d: spray
Excerpt: (§1) If the actual insecticide mortality is greater than calculated, then the combination is superadditive in its kill—that is, there is a synergistic effect. In this case the mortality actually observed must be greater than the value for the expected mortality (E) calculated on the basis of the formula given above.
Myzus Test (Spray Treatment)
Solvent: 78 parts by weight of acetone
• 1.5 parts by weight of dimethylformamide Emulsifier: 0.5 part by weight of alkylaryl polyglycol ether
A suitable preparation of active ingredient is prepared by mixing one part by weight of active ingredient with the stated amounts of solvent and emulsifier and diluting the concentrate with emulsifier-containing water to the desired concentration. A suitable suspension of biological agent is prepared by dissolving the cells, spores or viruses in emulsifier-containing water in the desired concentration.
Chinese cabbage (Brassica pekinensis) leaf disks infested by all stages of the green peach aphid (Myzus persicae) are sprayed with an active ingredient and/or biological agent preparation in the desired concentration.
After the desired time, the effect in % is ascertained. Here, 100% means that all of the aphids have been killed; 0% means that no aphids have been killed. The mortality figures determined are used for calculation according to the Colby formula (see sheet 1).

soya beans (Glycine max) = assay: Glycine max - growth promotion in combination with Mycorrhiza; conditions: 44 days greenhouse, fresh roots
Method: Glycine max—Growth Promotion in Combination with Mycorrhiza
Seed of soya beans (Glycine max) is mixed with the desired amount of active ingredient in water. After drying, the seeds are sown in pots filled with sand and perlite (1:1). For inoculation with arbuscular mycorrhiza fungi, the sand-perlite mixture is mixed beforehand with the Mycorrhiza inoculum (AMykor GmbH; Germany) in a concentration of 25 ml/L. The seed is covered with 3 cm of Lecaton (expanded clay).
Over the following 44 days, the plants are cultivated in a greenhouse in good growth conditions. The pots are watered with a nutrient solution (Hoagland and Amon, 1950, half-concentrated solution) with a low phosphate concentration (20 μM).
The untreated control plants are cultured without arbuscular mycorrhiza fungi, but under the same conditions.
The growth-promoting effect on shoot and roots is ascertained via the weight of the fresh roots of the treated plant in comparison to the untreated control.

[2] = tested on: cotton (Gossypium hirsutum); assay: Seed treatment - cotton emergence test; conditions: after 2 days
Excerpt: Seed Treatment—Cotton Emergence Test
Seed of cotton (Gossypium hirsutum) is mixed with the desired amount of active ingredient and spores and also water. After drying, 25 seed grains in each case are sown in pots filled with sandy loam.
After 2 days, the effect in % is ascertained on the basis of the cotton plants that have emerged.

Meloidogyne incognita = Meloidogyne incognita test (gall formation on lettuce roots)
Excerpt: (§2) The anticipated effect of a given combination of two active ingredients may be calculated (cf. Colby, S. R., “Calculating Synergistic and Antagonistic Responses of Herbicide Combinations”, Weeds 15, pages 20-22, 1967) as follows: • if • X is the mortality, expressed in % of the untreated control, when active ingredient A is used in an application rate of m ppm, or m g/ha • Y is the mortality, expressed in % of the untreated control, when active ingredient B is used in an application rate of n ppm, or n g/ha • E is the mortality, expressed in % of the untreated control, when active ingredients A and B are used at application rates of m and n ppm or of m and n g/ha, • then
as §1
Meloidogyne incognita Test
Solvent: 125.0 parts by weight of acetone
A suitable preparation of active ingredient is prepared by mixing one part by weight of active ingredient with the stated amounts of solvent and diluting the concentrate with water to the desired concentration. […]
After the desired time, the nematicidal effect is determined on the basis of gall formation in %. […]

[3] = tested on: army worm (Spodoptera frugiperda); assay: Spodoptera frugiperda test (spray treatment), maize leaf disks; conditions: foliar, 48 h, read-out: Mortality in % after 2d
Excerpt: as §2, §1
Spodoptera frugiperda Test (Spray Treatment)
Solvent: 78.0 parts by weight of acetone
• 1.5 parts by weight of dimethylformamide Emulsifier: 0.5 part by weight of alkylaryl polyglycol ether […]
After the desired time, the effect in % is ascertained. […] The mortality figures determined are used for calculation according to the Colby formula (see sheet 1).

[4] = Myzus persicae, foliar, 24 h, read-out: Mortality in % after 1d
[5] = 1000 g ai/ha, 100% = all aphids killed

## C/C=C(\C)C(=O)O[C@H]1C[C@@H](OC(C)=O)[C@@]2(C(=O)OC)CO[C@H]3[C@@H](O)[C@@](C)([C@]45O[C@@]4(C)[C@H]4C[C@@H]5O[C@@H]5OC=C[C@@]54O)[C@H]4[C@]1(CO[C@]4(O)C(=O)OC)[C@@H]32 [Azadirachtin, azadirachtin, reference compound]
[1]; [4]
  mortality at 100 g/ha: 0%

## O=S(=O)(CCC(F)=C(F)F)c1ncc(Cl)s1 [Fluensulfone, fluensulfone, reference compound]
[1]; 2000 g ai/ha
  Mortality in % after 1d: 0%

## O=C(NCCc1ncc(C(F)(F)F)cc1Cl)c1ccccc1C(F)(F)F [Fluopyram, N-{2-[3-chloro-5-(trifluoromethyl)-2-pyridinyl]ethyl}-2-trifluoromethylbenzamide, reference compound]
Soya beans (Glycine max); 0.1 mg/seed grain, seed treatment
  Root weight in % in comparison to untreated control: 116.90%
[1]; [4]
  mortality at 500 g/ha: 0%
  mortality at 1000 g/ha: 0%
[2]; 0.5 g ai/kg seed
  Emergence in % in comparison to untreated control: 100%
[2]; 1 g ai/kg seed, untreated = 100
  Emergence in % in comparison to untreated control: 133%
Meloidogyne incognita; Meloidogyne incognita, 504 h, read-out: Mortality in % after 21d
  mortality at 0.0005 ppm: 0%
[3]
  mortality at 1000 g/ha: 0%

## Bacillus amyloliquefaciens strain FZB 42
[1]; 2000 g ai/ha
  Mortality in % after 1d: 0%
[2]; 0.075 g ai/kg seed
  Emergence in % in comparison to untreated control: 158%
[2]; 0.15 g ai/kg seed
  Emergence in % in comparison to untreated control: 163%

## Bacillus subtilis strain GB03 [Bacillus subtilis strain GB 03]
[2]; 0.078 g ai/kg seed
  Emergence in % in comparison to untreated control: 158%

## Bacillus thuringiensis subsp. tenebrionis
[1]; [5]
  Mortality in % after 1d: 0%

## Cydia pomonella granulosis virus (CpGV)
[1]; [5]
  Mortality in % after 1d: 0%

## Metarhizium anisopliae strain F52
Meloidogyne incognita; 5 ppm, nematicidal effect from gall formation
  Mortality in % after 21d: 0%

## Metschnikowia fructicola
[1]; [5]
  Mortality in % after 1d: 0%

## Paecilomyces lilacinus strain 251
[1]; 5000 g ai/ha
  Mortality in % after 1d: 0%

## arbuscular mycorrhiza fungus
Soya beans (Glycine max); Mycorrhiza inoculum 25 ml/L in sand-perlite
  Root weight in % in comparison to untreated control: 133.21%
